{
  "source": "patent US20050042266A1",
  "about": "“Cyanoacrylate compositions containing anti-microbial agent” (priority 2003, published 2005)",
  "key": {"[1]": {"assay": "Solubility and stability of 1 wt % triclosan in 2-octyl cyanoacrylate monomer (visual observation)", "format": "physicochemical", "protocol": "A 2-octyl cyanoacrylate monomer composition is prepared by adding 1 wt % triclosan to 2 mL of 2-octyl cyanoacrylate monomer. The mixture is sealed in a glass vial or plastic vial and stirred. The characteristics of the composition are observed at about one minute after preparation and later at least twenty-four hours after preparation."}, "[2]": {"assay": "Compatibility of triclosan/2-octyl cyanoacrylate composition with sterilization (visual observation)", "format": "physicochemical", "protocol": "A 2-octyl cyanoacrylate monomer composition is prepared as in Example 1 by adding 1 wt % triclosan to 2 mL of 2-octyl cyanoacrylate monomer. The mixture is sealed in a glass vial or plastic vial and stirred.\nAfter sitting for about twenty-four hours, the mixture contained in the plastic vial is sterilized using electron beam sterilization to a Sterility Assurance Level (SAL) of 10^−6. After sitting for about twenty-four hours, the mixture contained in the glass vial is sterilized using dry heat sterilization to a Sterility Assurance Level (SAL) of 10^−6. The characteristics of the sterilized compositions are observed at about one minute after sterilization and later at least twenty-four hours after sterilization."}},
  "data": [
    {"smiles": "Oc1cc(Cl)ccc1Oc1ccc(Cl)cc1Cl", "note": "[triclosan, 2,4,4′-trichloro-2 hydroxy di-phenyl ether]", "values": [
      {"measurement": "premature polymerization (stability of monomer composition)", "setting": "[1]; 1 wt % in 2-octyl cyanoacrylate, about one minute and at least twenty-four hours after preparation", "value": "does not cause premature polymerization"},
      {"measurement": "solubility in the monomer", "setting": "[1]; 1 wt % in 2 mL 2-octyl cyanoacrylate, observed about one minute and at least twenty-four hours after preparation, solution remains clear", "value": "soluble in the monomer"},
      {"measurement": "compatibility with dry heat sterilization", "setting": "[2]; 1 wt % in 2-octyl cyanoacrylate, glass vial, SAL 10^-6, solution remains clear", "value": "compatible"},
      {"measurement": "compatibility with electron beam sterilization", "setting": "[2]; 1 wt % in 2-octyl cyanoacrylate, plastic vial, SAL 10^-6, solution remains clear", "value": "compatible with electron beam sterilization"},
      {"measurement": "premature polymerization during or after sterilization", "setting": "[2]; about one minute and at least twenty-four hours after sterilization", "value": "does not cause premature polymerization during or after sterilization"}
    ]}
  ]
}
